Assay results reported in patent publication US20030017590A1, “PRODUCTION OF HUMAN CNS NEURONS FROM EMBRYONAL CARCINOMA CELLS USING CELL AGGREGATION METHOD” (priority 1999, published 2003).
Entries after “also recorded” stand apart in the source; their conditions may differ.

Tests used:
NT2 cells [1] = assay: RA-induced neuronal differentiation of NT2 cell aggregates (phase contrast morphology); type: cell-based, human; settings: for number of neurons that could be prepared: NT2 aggregates
Protocol: NT2 cells were cultured as previously described (Pleasure, S. J. et al., 1992, J. Neurosci. 12:1802-1815). Briefly, cells were maintained in OptiMEMI-reduced serum medium (GIBCO, Palo Alto, Calif., USA) supplemented with 5% fetal bovine serum (FBS; GIBCO, Palo Alto, Calif., USA). When NT2 cells were differentiated by the standard protocol, NT2 cells were seeded at 2×10^6 cells per 75 cm^2 in Dulbecco's Modified Eagle's medium (high glucose formulation) (DMEM-HG; GIBCO, Palo Alto, Calif., USA) and were treated with a final concentration of 10 μM all-trans RA (SIGMA, St. Louis, Mo., USA). In the cell aggregation studies, cells were dislodged by trypsinization and were plated at 1×10^5 cells per ml into a 85-mm bacteriological grade petri dish in DMEM-HG supplemented 10% FBS. After incubation overnight at 37° C. in a 5% CO2 incubator, the aggregates were supplemented with a final concentration of 10 μM all-trans RA. The medium was replaced every two days. After 14 days of RA treatment, aggregates were plated onto tissue culture grade petri dish pre-coated with 10 μg/ml poly-D-lysine (PDL; SIGMA, St. Louis, Mo., USA), 10 μg/ml mouse laminin (LAM; GIBCO, Palo Alto, Calif., USA) and 0.1% gelatin (SIGMA, St. Louis, Mo., USA) in Dulbecco's Phosphate buffered saline (D-PBS; GIBCO, Palo Alto, Calif., USA). Following overnight incubation, aggregates were then cultured in DMEM-HG with 10% FBS supplemented with 1 μM cytosine D-arabinofuranoside (arac; SIGMA, St. Louis, Mo., USA) and 10 μM uridine (SIGMA, St. Louis, Mo., USA). After 3 days of incubation, neurons were detached by tapping gently on the side of the tissue culture plate, or by brief trypsinization, and replated on to a new pre-coated tissue culture plate. Incubation was continued in the presence of araC and uridine for another 4 days. Neurons obtained could be kept in DMEM supplemented with 10% FBS for more than 3 weeks.
To examine the effect of cell aggregation on RA-induced neuronal differentiation, NT2 cells were pre-aggregated as described above. After 14 days of RA treatment, aggregates were plated on PDL and LAM (PDL/LAM) coated plates. […] Phase bright neuron-like cells with long extended neurites continued to migrate out from the NT2 aggregates. At day 3 after replating, these cells grew on the surface of large-flattened cells (FIG. 1). […] However, neuron-like cells were subsequently overwhelmed by both undifferentiated NT2 cells and the differentiated large-flattened cells (Pleasure, S. J. et al., 1992, J. Neurosci. 12:1802-1815).
It is possible that the sustained requirement of RA for the neuronal differentiation of NT2 is indeed due to the lack of cell-cell interaction. To examine this possibility, NT2 cells were maintained as aggregates in bacteriological culture dish for 14 days and RA treatment was given only during the first few days of aggregation (1 to 5 days).

NT2 cells [2] = settings: standard protocol for differentiation; cited from earlier work
NT2 aggregates = assay: Western blot of neuronal markers in RA-differentiated NT2 aggregates; type: cell-based, human
Protocol: (§1) FIG. 5. Expression of neuronal markers in RA differentiated NT2 aggregates. NT2 cells were pre-aggregated by RA at concentration (10^−7 to 10^−5 M) for 14 days and replated onto PDL/LAM coated plates for two days. As control experiments, NT2 cells were plated at 2×10^5 cells/ml as monolayer cultures and differentiated with RA (10^−7 to 10^−5 M) for a total of 16 days. Total proteins were extracted and Western blot analysis was performed using antibodies specific against phosphorylated NF-M (NF-M-P; upper panel) and synapsin I (lower panel).
(§2) Cells were washed twice with ice-cold PBS followed by a wash with ice-cold PBS supplemented with 1 mM sodium orthovanadate (NaOV; SIGMA, St. Louis, Mo., USA). Cells were then lysed with lysis buffer (50 mM Tris.Cl at pH8, 150 mM NaCl, 1% TX, 1×aprotinin; SIGMA, St. Louis, Mo., USA, 1 mM PMSF; GIBCO, Palo Alto, Calif., USA and 1 mM NaOV) at 4° C. for 15 minutes. Lysates were collected and centrifuged to remove cell debris. Protein assays were performed with Bio-Rad Protein Assay Kit based on the Bradford dye-binding procedure (BIO-RAD, Hercules, Calif., USA). Protein (typically 10 μg) were separated by SDS-PAGE and then electro-transferred to nitrocellulose membrane (MSI, Westborough, Mass., USA). After blocking at room temperature for 1 hr using TBS-Tween containing 5% non-fat milk, membranes were incubated overnight at 4° C. with primary antibodies in TBS-Tween containing 5% non-fat milk. Membranes were then incubated with horseradish peroxidase conjugated secondary antibodies (1:2000 dilution; AMERSHAM, Arlington Heights, Ill., USA) for 1 hour at room temperature. After three washes with TBS-Tween, immunoreactive bands were detected using ECL kit (AMERSHAM, Arlington Heights, Ill., USA).
To study whether the high concentrations of RA required for inducing neuronal differentiation of NT2 cells could be lowered under the condition of cell aggregation, we exposed the NT2 aggregates to reduced concentration of RA (0.1 to 10 μM). Following treatment of NT2 aggregates with RA for 14 days, these cells were plated onto PDL/LAM coated plates in RA-free medium, and total protein samples were prepared 2 days later. As control, total protein samples were extracted from monolayer NT2 cultures treated with 16 days of RA (0.1 to 10 μM).

NT2 cells [3] = assay: Indirect immunofluorescent analysis of NT2 neurons differentiated by cell aggregation; type: cell-based, human; settings: RA 5 μM for 14 days, two days after replating in RA-free medium
Protocol: NT2 cells were aggregated and differentiated by RA (5 μM) for 14 days. Two days after replating in RA-free medium, differentiated NT2 cells were fixed and stained with the antibodies specific against TH (upper panel), and phosphorylated NF-M (lower panel). Scale bar, 50 μm.
For immunofluorescent analysis, control or differentiated aggregates cultures were fixed with 4% paraformaldehyde (FLUKA, Hauppauge, N.Y., USA) in PBS. After blocking with 4% normal serum (NS; VECTOR LAB, Burlingame, Calif., USA) in PBS containing 0.4% Triton-X (TX; BOERINGER MANNEHEIM, Mannheim, Germany), and 1% bovine serum albumin (BSA; SIGMA, St. Louis, Mo., USA), aggregates were incubated overnight at 4° C. with primary antibodies diluted in antibody diluent (1% NS, 0.4% TX and 1% BSA). Incubation with secondary antibodies was performed at room temperature for at least 2 hours. Cells were visualized under fluorescence microscope (ZEISS, Jena, Germany). […]
In order to verify whether the phase-bright cells obtained following cell aggregation were neurons, immunocytochemical analysis was performed. High-molecular weight neurofilament proteins (200 kDa) were detected in the neurites of the neurons (FIG. 2). […] In addition, substance P (SP) was detected in both the cell bodies and the neurites of the neurons (FIG. 2). […]

monolayer NT2 cells = assay: Western blot of neuronal markers in RA-treated monolayer NT2 cultures; type: cell-based, human; settings: RA 0.1 to 10 μM for 16 days
Protocol: as §1
as §2, with “Mass., USA). […] After three” for “Mass., USA). After blocking at room temperature for 1 hr using TBS-Tween containing 5% non-fat milk, membranes were incubated overnight at 4° C. with primary antibodies in TBS-Tween containing 5% non-fat milk. Membranes were then incubated with horseradish peroxidase conjugated secondary antibodies (1:2000 dilution; AMERSHAM, Arlington Heights, Ill., USA) for 1 hour at room temperature. After three”, “Ill., USA). […]” for “Ill., USA).”

[4] = NT2 aggregates, RA 0.1 to 10 μM

CC1=C(/C=C/C(C)=C/C=C/C(C)=C/C(=O)O)C(C)(C)CCC1 [RA, all-trans retinoic acid]
formation of neurons after brief RA treatment (NT2 cells [1]; 2 to 3 days of RA treatment (10 μM), cells maintained as aggregates for 14 days): Neurons were observed
neurite outgrowth from NT2 aggregates (NT2 cells [1]; 14 days of RA treatment (10 μM), plated on PDL/LAM, overnight incubation without RA): Neurite outgrowth was initiated
number of neurons that could be prepared (NT2 cells [1]; 0.1 μM RA): almost no neurons were observed; also recorded: did not result in cells that resembled neurons
number of neurons that could be prepared (NT2 cells [1]; 1 μM RA): only a few neurons could be observed
time to formation of neurons (NT2 cells [1]; NT2 cells treated with RA as aggregates in bacteriological plates): ≤ 16 days
extension of neurites from NT2 cells (NT2 cells [1]; RA for only 12 days, 2 days after plating on PDL/LAM): extension of neurites from NT2 cells was observed
neuritic outgrowth of RA-treated aggregates (NT2 cells [1]; cell aggregation period less than 12 days): did not result in observable neuritic outgrowth
time until neuron-like cells observed after RA treatment (NT2 cells [2]): about five weeks
expression level of phosphorylated NF-M proteins, aggregates versus monolayer (NT2 aggregates; NT2 aggregates at 0.1 μM RA versus monolayer NT2 cells at 10 μM RA): comparable expression level
expression level of phosphorylated NF-M proteins versus RA concentration (NT2 aggregates; [4]): elevated with increased concentration of RA
synapsin I protein expression (NT2 aggregates; [4]): High level of synapsin I protein expression was detected
expression of phosphorylated NF-M proteins (NT2 aggregates; NT2 aggregates, RA 0.1 to 10 μM for 14 days, 2 days on PDL/LAM): could induce the expression of phosphorylated NF-M proteins
expression of neuronal specific proteins (NF200, synapsin I, substance P, GABA) (NT2 cells [3]): expressed neuronal specific proteins
expression of tyrosine hydroxylase (TH) (NT2 cells [3]): expressed tyrosine hydroxylase (TH)
expression of phosphorylated NF-M (monolayer NT2 cells): expressed phosphorylated NF-M only at higher concentrations of RA (1 or 10 μM)
